Test results: patent US20060178513A1, “Pyridinylanilides” (priority 2003, published 2006)
Read-outs that look alike come from different tables or passages of the source.

How the values were obtained:
[1] = logP determination by HPLC (reversed-phase C 18), EEC Directive 79/831 Annex V.A8; assay type: physicochemical
Procedure: The logP values given in the Preparation Examples were determined in accordance with EEC Directive 79/831 Annex V.A8 by HPLC (High Performance Liquid Chromatography) using a reversed-phase column (C 18). Temperature: 43° C. Mobile phases for the determination in the acidic range: 0.1% aqueous phosphoric acid, acetonitrile; linear gradient from 10% acetonitrile to 90% acetonitrile. Calibration was carried out using straight-chain alkan-2-ones (having 3 to 16 carbon atoms) with known logp values (determination of the logp values by the retention times using linear interpolation between two successive alkanones).

[2] = system: Podosphaera leucotricha; assay: Podosphaera test (apple)/protective; assay type: in vivo; settings: topical, 240 h, apple plants, protective, application rate 100 g/ha, evaluation 10 days after inoculation, read-out: Efficacy in %
Procedure: [table] To produce a suitable preparation of active compound, 1 part by weight of active compound is mixed with the stated amounts of solvent and emulsifier, and the concentrate is diluted with water to the desired concentration. To test for protective activity, young plants are sprayed with the preparation of active compound at the stated application rate. After the spray coating has dried on, the plants are inoculated with an aqueous spore suspension of the apple mildew pathogen Podosphaera leucotricha. The plants are then placed in a greenhouse at about 23° C. and a relative atmospheric humidity of about 70%. Evaluation is carried out 10 days after the inoculation. 0% means an efficacy which corresponds to that of the control, whereas an efficacy of 100% means that no infection is observed.

[3] = system: Alternaria solani; assay: Alternaria test (tomato)/protective; assay type: in vivo; settings: tomato plants, protective, application rate 750 g/ha, evaluation 7 days after inoculation
Procedure: [table] To produce a suitable preparation of active compound, 1 part by weight of active compound is mixed with the stated amounts of solvent and emulsifier, and the concentrate is diluted with water to the desired concentration. To test for protective activity, young tomato plants are sprayed with the preparation of active compound at the stated application rate. 1 day after the treatment, the plants are inoculated with a spore suspension of Alternaria solani and then remain at 100% rel. humidity and 20° C. for 24 h. The plants then remain at 96% rel. atmospheric humidity and a temperature of 20° C. Evaluation was carried out 7 days after the inoculation. 0% means an efficacy which corresponds to that of the control, whereas an efficacy of 100% means that no infection is observed.

[4] = system: Pyrenophora teres; assay: Pyrenophora teres test (barley)/protective; assay type: in vivo; settings: barley plants, protective, application rate 500 g/ha, evaluation 8 days after inoculation
Procedure: (§1) [table] To produce a suitable preparation of active compound, 1 part by weight of active compound is mixed with the stated amount of solvent and emulsifier, and the concentrate is diluted with water to the desired concentration. To test for protective activity, young plants are sprayed with the preparation of active compound at the stated application rate. After the spray coating has dried on, the plants are sprayed with a conidia suspension of Pyrenophora teres. The plants remain in an incubation cabin at 20° C. and 100% relative atmospheric humidity for 48 hours. The plants are then placed in a greenhouse at a temperature of about 20° C. and a relative atmospheric humidity of about 80%. Evaluation is carried out 8 days after the inoculation. 0% means an efficacy which corresponds to that of the control, whereas an efficacy of 100% means that no infection is observed.

[5] = system: Puccinia recondita; assay: Puccinia test (wheat)/protective; assay type: in vivo; settings: wheat plants, protective, application rate 500 g/ha, evaluation 10 days after inoculation
Procedure: as §1, with “stated amounts” for “stated amount”, “of Puccinia recondita.” for “of Pyrenophora teres.”, “of approximately” for “of about”, “of 80% to promote the development of rust pustules.” for “of about 80%.”, “out 10” for “out 8”

[6] = system: Venturia inaequalis; assay: Venturia Test (Apple)/protective; assay type: in vivo; settings: topical, 240 h, apple plants, protective, application rate 100 g/ha, evaluation 10 days after inoculation, read-out: Efficacy in %
Procedure: [table] To produce a suitable preparation of the active compound, 1 part by weight of active compound is mixed with the stated amounts of solvents and emulsifier, and the concentrate is diluted with water to the desired concentration. To test for protective activity, young plants are sprayed with the preparation of active compound at the stated application rate. After the spray coating has dried on, the plants are inoculated with an aqueous conidia suspension of the apple scab pathogen Venturia inaequalis and then remain in an incubation cabin at about 20° C. and 100% relative atmospheric humidity for 1 day. The plants are then placed in a greenhouse at about 21° C. and a relative atmospheric humidity of about 90%. Evaluation is carried out 10 days after the inoculation. 0% means an efficacy which corresponds to that of the control, whereas an efficacy of 100% means that no infection is observed.

[7] = reversed-phase HPLC column (C 18), HPLC, reversed-phase C 18, 43° C., acidic range (0.1% aqueous phosphoric acid/acetonitrile), read-out: logP
[8] = reversed-phase HPLC column (C 18), pH 2.3, HPLC, reversed-phase C 18, 43° C., read-out: log P (pH 2.3)

| SMILES | chromatographic logP [1, 7] | pest or weed control at 100 g/ha [2] [%] | pest or weed control at 100 g/ha [6] [%] | also measured |
| --- | --- | --- | --- | --- |
| O=C(Nc1ccccc1-c1ccc(C(F)(F)F)cn1)c1ccccc1C(F)(F)F [1-8-9] | 4.13 | 97 |  | Efficacy in % [3]: 95% |
| Cc1nn(C)c(F)c1C(=O)Nc1ccccc1-c1ccnc(Br)c1 [1-7-4] | 2.02 |  |  | Efficacy in % [4]: 93%; Efficacy in % [5]: 100% |
| CO/N=C/c1ccc(Br)nc1 [VII-1, 6-bromo-pyridine-3-carbaldehyde (E)-O-methyl-oxime] |  |  |  | chromatographic logP ([1]; pH 2.3): 2.16 |
| Nc1ccccc1-c1ncc(C(F)(F)F)cc1Cl [III-1, 2-[3-chloro-5-(trifluoromethyl)-2-pyridinyl]aniline] |  |  |  | chromatographic logP [1, 8]: 2.79 |
| Cc1occc1C(=O)Nc1ccccc1-c1ncc(C(F)(F)F)cc1Cl [1-8-2] | 3.44 |  |  | Efficacy in % [3]: 100%; Efficacy in % [4]: 100%; Efficacy in % [5]: 100% |
| Cc1ccsc1C(=O)Nc1ccccc1-c1ncc(C(F)(F)F)cc1Cl [1-8-3] | 3.83 | 100 | 100 | Efficacy in % [3]: 95%; Efficacy in % [4]: 100%; Efficacy in % [5]: 100% |
| O=C(Nc1ccccc1-c1ccnc(Br)c1)c1ccccc1C(F)(F)F [1-7-5] | 2.85 |  |  | Efficacy in % [4]: 93% |
| O=C(Nc1ccccc1-c1ncc(C(F)(F)F)cc1Cl)c1ccccc1C(F)(F)F [1-8-1] | 3.59 | 100 | 100 | chromatographic logP [1, 8]: 3.58; Efficacy in % [5]: 100% |
| O=C(Nc1ccccc1-c1ccc(Cl)cn1)c1ccccc1C(F)(F)F [1-8-12] | 4 | 92 | 100 |  |
| O=C(Nc1ccccc1I)c1ccccc1C(F)(F)F [IV-1] |  |  |  | chromatographic logP [1, 8]: 2.98 |
| O=C(Nc1ccccc1-c1ccc(Cl)cn1)c1cccnc1Cl [1-8-10] | 2.95 | 100 | 100 | Efficacy in % [4]: 100%; Efficacy in % [5]: 94% |
| Cn1cc(C(=O)Nc2ccccc2-c2ccc(Cl)nc2)c(C(F)F)n1 [1-6-7] | 2.1 | 98 |  |  |
| Cn1cc(C(=O)Nc2ccccc2-c2ccnc(Br)c2)c(C(F)F)n1 [1-7-6] | 2.13 |  |  | Efficacy in % [3]: 95%; Efficacy in % [4]: 93%; Efficacy in % [5]: 100% |
| CO/N=C/c1ccc(-c2ccccc2N)nc1 [III-2, 6-(2-amino-phenyl)-pyridine-3-carbaldehyde (E)-O-methyl-oxime] |  |  |  | chromatographic logP [1, 8]: 1.59 |
| Cc1nc(C(F)(F)F)c(C(=O)Nc2ccccc2-c2cc(Cl)nc(Cl)c2)s1 [1-7-10] | 3.27 | 100 | 100 | Efficacy in % [3]: 100% |
| Cn1nc(C(F)(F)F)c(C(=O)Nc2ccccc2-c2cc(Cl)nc(Cl)c2)c1F [1-7-9] |  |  | 100 |  |
| Cc1nn(C)c(F)c1C(=O)Nc1ccccc1-c1ccc(Cl)cn1 [1-8-11] | 3.06 | 95 | 100 |  |

More lines, main results first:

| chromatographic logP [1, 7] | SMILES | pest or weed control at 100 g/ha [2] [%] | pest or weed control at 100 g/ha [6] [%] | also measured |
| --- | --- | --- | --- | --- |
| 3.49 | O=C(Nc1ccccc1-c1ncc(C(F)(F)F)cc1Cl)c1ccccc1Br [1-8-21] | 100 |  |  |
| 2.92 | Cn1cc(C(=O)Nc2ccccc2-c2ncc(C(F)(F)F)cc2Cl)c(I)n1 [1-8-30] |  | 92 |  |
| 3.05 | Cn1cc(C(=O)Nc2ccccc2-c2ccc(Cl)cn2)c(C(F)F)n1 [1-8-14] |  | 100 | Efficacy in % [4]: 94% |
| 3.48 | Cc1nc(C(F)(F)F)c(C(=O)Nc2ccccc2-c2ncc(C(F)(F)F)cc2Cl)s1 [1-8-28] | 96 | 98 |  |
| 3.43 | O=C(Nc1ccccc1-c1ncc(C(F)(F)F)cc1Cl)C1=C(C(F)(F)F)OCCS1 [1-8-25] |  | 99 |  |
| 2.91 | Cn1cc(C(=O)Nc2ccccc2-c2ncc(C(F)(F)F)cc2Cl)c(C(F)F)n1 [1-8-27] | 97 | 100 |  |
| 2.95 | CON=Cc1ccc(-c2ccccc2NC(=O)c2cccnc2Cl)nc1 [1-8-15, 2-chloro-N-{2-[5-(E)methoxyimino-methyl)-pyridin-2-yl]-phenyl}-nicotinamide] |  |  | chromatographic logP [1, 8]: 2.95 |
| 3.45 | O=C(Nc1ccccc1-c1ncc(C(F)(F)F)cc1Cl)c1ccccc1Cl [1-8-20] | 100 |  |  |
| 3.13 | Cn1cc(C(=O)Nc2ccccc2-c2ncc(C(F)(F)F)cc2Cl)c(C(F)(F)F)n1 [1-8-29] |  | 98 |  |
